The source of these data is PMC6494078, “Development of an HPLC-based guanosine monophosphate kinase assay and application to Plasmodium vivax guanylate kinase” (Analytical Biochemistry, 2019).

Holding throughout (format): biochemical
The target in experiment [1] is T1, Plasmodium vivax guanylate kinase (PvGK) (Plasmodium vivax, UniProt A5K709).
T1 construct: gene PVX_099895; full-length PvGK with an N-terminal hexa-histidine tag
Description: HPLC guanylate kinase assay, GMP saturation curve (substrate inhibition).

In experiment [2] the target is T1, Plasmodium vivax guanylate kinase (PvGK). Description: HPLC guanylate kinase assay, ATP saturation curve (sigmoidal, h = […]; apparent Kprime).
Experiment [3] shares this target. Description: HPLC guanylate kinase inhibition assay, percent inhibition at […]. The conditions noted are these: read-out: % inhibition at 5 mM.
Experiment [4] shares this target. Description: HPLC detection of product formed by purified enzyme.
Experiment [5] has the same target. Description: HPLC guanylate kinase inhibition assay, IC50 curve.

T1 sequence (A5K709 entry or part of it): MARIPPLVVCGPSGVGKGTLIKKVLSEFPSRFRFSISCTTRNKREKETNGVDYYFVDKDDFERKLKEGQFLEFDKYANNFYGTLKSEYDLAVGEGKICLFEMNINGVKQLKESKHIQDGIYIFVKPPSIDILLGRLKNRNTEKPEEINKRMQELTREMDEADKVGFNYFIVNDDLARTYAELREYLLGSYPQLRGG

For `Nc1nc(=O)c2ncn([C@@H]3O[C@H](COP(=O)(O)O)[C@@H](O)[C@H]3O)c2[nH]1` [GMP], in experiment [1], the “HPLC guanylate kinase assay, GMP saturation curve (substrate inhibition)” value is on record as “showed a decrease in initial velocity with increasing GMP concentrations, indicating strong substrate inhibition”.

Consider `Nc1ncnc2c1ncn2[C@@H]1O[C@H](COP(=O)(O)OP(=O)(O)OP(=O)(O)O)[C@@H](O)[C@H]1O` [ATP], for which the Km in experiment [2] was determined as 15.6 ± 2.07 µM.

Consider `O=c1ccc2ccc(O)c(O)c2o1` [compound 1, 7,8-dihydroxycoumarin], for which the inhibition at 5000 µM in experiment [3] came to 68%.

In the case of `Nc1nc2c(ncn2[C@@H]2O[C@H](COP(=O)(O)OP(=O)(O)O)[C@@H](O)[C@H]2O)c(=O)[nH]1` [GDP], the “HPLC detection of product formed by purified enzyme” value in experiment [4] was “used to study the kinetics of the forward reaction (forming ADP and GDP) catalyzed by PvGK”.

The molecule `O=C(O)C1CSC2(C(=O)O)CCC(=O)N12` (centres unmarked) [compound 2, Compound 2] had an IC50 in experiment [5] of 2700 µM.

The term Km denotes the concentration of substrate that gives half-maximal velocity. One may read the inhibition as the relative decrease from the control value, in per cent. By IC50 is commonly meant the concentration that gives 50% inhibition.
